From ChEMBL document CHEMBL3352382, “New benzimidazole-2-urea derivates as tubulin inhibitors” (Bioorg Med Chem Lett, 2014)
Calls of active or inactive are those of the source. No cut-off for these calls is given here.

How the values were obtained:
NCI-H460 = test: Cytotoxicity against human NCI-H460 cells assessed as growth inhibition by MTT assay; format: functional, cell-based
COLO 205 = test: Cytotoxicity against human COLO205 cells assessed as growth inhibition by MTT assay; format: functional, cell-based
Tubulin (Homo sapiens) [1] = target: T1, Tubulin (Homo sapiens) (UniProt P68371+Q9H4B7+P0DPH7+P68366+Q13509+Q71U36+P04350+Q3ZCM7+P07437+P68363+Q9BQE3+Q6PEY2+Q13885+Q9BVA1+Q9BUF5); test: Inhibition of tubulin in human NCI-H460 cells assessed as depolymerization of microtubule cytoskeleton after 8 hrs by immunofluorescence technique; format: cell-based
Tubulin (Homo sapiens) [2] = target: T1, Tubulin (Homo sapiens); test: Inhibition of tubulin in human NCI-H460 cells assessed as reduction in spindles formation at 100 nM after 8 hrs by immunofluorescence technique; format: cell-based
HeLa = test: Cytotoxicity against human HeLa cells assessed as growth inhibition after 72 hrs by CCK-8 assay; format: functional, cell-based
[3] = Cytotoxicity against human MDA-MB-435S cells assessed as growth inhibition after 72 hrs by CCK-8 assay; format: functional, cell-based
HepG2 = test: Cytotoxicity against human HepG2 cells assessed as growth inhibition after 72 hrs by CCK-8 assay; format: functional, cell-based; conditions: HepG2, 72 h
A-431 = test: Cytotoxicity against human A431 cells assessed as growth inhibition after 72 hrs by CCK-8 assay; format: functional, cell-based; conditions: A-431, 72 h
K562 = test: Cytotoxicity against human K562 cells assessed as growth inhibition after 72 hrs by CCK-8 assay; format: functional, cell-based; conditions: K562, 72 h

For `O=C(Cc1ccccc1)Nc1nc2cc(Oc3ccccc3)ccc2[nH]1`, the IC50 (NCI-H460) was over 10000 nM and the IC50 (COLO 205) was 11400 nM.

For `CNC(=O)Nc1nc2cc(Oc3cccc(C#N)c3)ccc2[nH]1`, the Activity (Tubulin (Homo sapiens) [1]) was “Dose-dependent effect” and the Activity (Tubulin (Homo sapiens) [2]) was “Active”.

Compound `COc1cc2c(c(OC)c1OC)-c1ccc(OC)c(=O)cc1[C@@H](NC(C)=O)CC2` [COLCHICINE] has an IC50 (HeLa) of 704 nM, an IC50 (NCI-H460) of 21 nM and an IC50 [3] of 7 nM. The IC50 (COLO 205) was 3 nM, the IC50 (HepG2) was 1710 nM and the IC50 (A-431) was 8 nM. It also gave an IC50 (K562) of 1 nM.

Work on `CC(=O)O[C@H]1C(=O)[C@@]2(C)[C@H]([C@H](OC(=O)c3ccccc3)[C@]3(O)C[C@H](OC(=O)[C@H](O)[C@@H](NC(=O)c4ccccc4)c4ccccc4)C(C)=C1C3(C)C)[C@]1(OC(C)=O)CO[C@@H]1C[C@@H]2O` [PACLITAXEL] yielded an IC50 (HeLa) of 410 nM, an IC50 (NCI-H460) of 10 nM and an IC50 [3] of 9 nM. It also gave an IC50 (COLO 205) of 3 nM, an IC50 (HepG2) of 990 nM and an IC50 (A-431) of 7 nM. For the same compound, the IC50 (K562) was 4 nM.
